Test results published in article PMC10709440, “High-throughput ligand profile characterization in novel cell lines expressing seven heterologous insect olfactory receptors for the detection of volatile plant biomarkers” (Scientific Reports, 2023).
Like-named read-outs stand apart in the source and are kept apart here.

Columns and labels:
Drosophila OR47a = target: T1, Drosophila OR47a (Drosophila melanogaster, UniProt P81921); assay: Calcium ion fluorescence (GCaMP6) assay, OR47a stable HEK293 cell line; type: cell-based; conditions: for OR47a response (VUAA1-normalized) at 1 μM / OR47a response (VUAA1-normalized) at 10 μM / OR47a response (VUAA1-normalized) at 100 μM / Average response: OR47a cell line; for Average response: mean of biological replicates
T1 construct: expressed in transfected cells
T1 sequence (P81921 1-385): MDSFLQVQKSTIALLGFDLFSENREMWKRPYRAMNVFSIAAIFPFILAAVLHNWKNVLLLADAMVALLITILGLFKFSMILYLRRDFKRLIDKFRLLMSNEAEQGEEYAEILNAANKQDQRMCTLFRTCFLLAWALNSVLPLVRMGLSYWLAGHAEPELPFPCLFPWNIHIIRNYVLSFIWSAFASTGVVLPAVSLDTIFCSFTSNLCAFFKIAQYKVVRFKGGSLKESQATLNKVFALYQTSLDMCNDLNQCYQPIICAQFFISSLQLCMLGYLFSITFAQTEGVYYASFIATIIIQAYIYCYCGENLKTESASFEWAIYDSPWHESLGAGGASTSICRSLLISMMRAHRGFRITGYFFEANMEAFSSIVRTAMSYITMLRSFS
T1 sequence (Q9VNB5 1-486 partner): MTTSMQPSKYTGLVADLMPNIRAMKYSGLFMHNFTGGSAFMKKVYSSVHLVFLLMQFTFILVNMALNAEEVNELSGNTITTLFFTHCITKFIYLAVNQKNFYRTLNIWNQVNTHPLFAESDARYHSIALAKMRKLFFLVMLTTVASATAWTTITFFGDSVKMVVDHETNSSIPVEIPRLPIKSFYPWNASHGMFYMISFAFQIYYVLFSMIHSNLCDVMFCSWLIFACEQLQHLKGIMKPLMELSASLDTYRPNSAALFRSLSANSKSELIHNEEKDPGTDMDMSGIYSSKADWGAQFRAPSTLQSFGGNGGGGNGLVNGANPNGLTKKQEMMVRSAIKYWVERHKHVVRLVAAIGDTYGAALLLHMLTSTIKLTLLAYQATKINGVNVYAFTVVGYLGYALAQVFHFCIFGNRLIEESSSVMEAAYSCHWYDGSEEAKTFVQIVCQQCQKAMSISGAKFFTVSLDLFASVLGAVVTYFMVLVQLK
Summary of the method: (§1)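 HEK293 lines stably expressing each Drosophila OR with GCaMP6, doxycycline-induced (1 μg/mL) 48 or 72 h. Fluorescence recorded 5 s baseline then 30 s after VOC injection at pH 7.3; ΔF=(FMAX−F0)/F0, normalized to 50 µM VUAA1 response per line, triplicate wells averaged; concentration series 0.01–100 μM.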

Drosophila OR10a = target: T2, Drosophila OR10a (Drosophila melanogaster, UniProt Q9VYZ1); assay: Calcium ion fluorescence (GCaMP6) assay, OR10a stable HEK293 cell line; type: cell-based; conditions: for OR10a response (VUAA1-normalized) at 1 μM / OR10a response (VUAA1-normalized) at 10 μM / OR10a response (VUAA1-normalized) at 100 μM: OR10a cell line
T2 construct: expressed in transfected cells
T2 sequence (Q9VYZ1 1-406): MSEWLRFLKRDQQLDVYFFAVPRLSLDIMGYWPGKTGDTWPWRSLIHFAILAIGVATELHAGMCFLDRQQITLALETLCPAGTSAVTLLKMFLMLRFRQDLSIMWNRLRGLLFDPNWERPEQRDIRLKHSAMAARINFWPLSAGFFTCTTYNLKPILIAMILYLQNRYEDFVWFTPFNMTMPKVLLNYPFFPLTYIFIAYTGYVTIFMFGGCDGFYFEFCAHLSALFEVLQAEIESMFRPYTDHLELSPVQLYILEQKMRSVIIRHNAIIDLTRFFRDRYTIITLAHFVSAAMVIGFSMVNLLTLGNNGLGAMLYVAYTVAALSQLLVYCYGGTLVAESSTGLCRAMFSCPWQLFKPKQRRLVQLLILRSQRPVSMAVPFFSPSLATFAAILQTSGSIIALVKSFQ
T2 sequence (Q9VNB5 1-486 partner): T1 sequence (Q9VNB5 1-486 partner)
Summary of the method: as §1

[1] = HEK293, read-out: OR47a Average response (VUAA1-normalized)
[2] = ligand concentration 1 (unit not given), threshold 0.05, below shown as 0
[3] = ligand concentration 10 (unit not given), threshold 0.05, below shown as 0
[4] = ligand concentration 100 (unit not given), threshold 0.05, below shown as 0
[5] = HEK293, 1 μM VOC, 50 μM VUAA1 = 1, responses not exceeding 0.05 considered 0, read-out: OR10a Average response (VUAA1-normalized)
[6] = HEK293, 10 μM VOC, 50 μM VUAA1 = 1, responses not exceeding 0.05 considered 0, read-out: OR10a Average response (VUAA1-normalized)
[7] = HEK293, 100 μM VOC, 50 μM VUAA1 = 1, responses not exceeding 0.05 considered 0, read-out: OR10a Average response (VUAA1-normalized)
[8] = concentration 1, normalized fluorescence change, values below 0.05 threshold given as 0
[9] = concentration 10, normalized fluorescence change, values below 0.05 threshold given as 0
[10] = concentration 100, normalized fluorescence change, values below 0.05 threshold given as 0
[11] = HEK293, read-out: OR47a response (VUAA1-normalized response)
[12] = HEK293, read-out: OR10a response (VUAA1-normalized response), VOC concentration 1 μM
[13] = HEK293, read-out: OR10a response (VUAA1-normalized response), VOC concentration 10 μM
[14] = HEK293, read-out: OR10a response (VUAA1-normalized response), VOC concentration 100 μM

| Compound | activation at 1 µM (Drosophila OR47a; [1]) [%] | activation at 10 µM (Drosophila OR47a; [1]) [%] | activation at 100 µM (Drosophila OR47a; [1]) [%] | OR47a response (VUAA1-normalized) at 1 μM (Drosophila OR47a; VOC concentration 1 μM) | OR47a response (VUAA1-normalized) at 10 μM (Drosophila OR47a; VOC concentration 10 μM) | Average response (Drosophila OR47a; odorant cc. 1 µM) | Average response (Drosophila OR47a; odorant cc. 10 µM) | Average response (Drosophila OR47a; odorant cc. 100 µM) | activation at 1 µM (Drosophila OR10a; [5]) [%] | activation at 10 µM (Drosophila OR10a; [6]) [%] | activation at 100 µM (Drosophila OR10a; [7]) [%] | DF norm AVERAGE OR47a (Drosophila OR47a; [8]) | DF norm AVERAGE OR47a (Drosophila OR47a; [9]) | DF norm AVERAGE OR47a (Drosophila OR47a; [10]) | activation at 1 µM (Drosophila OR47a; [11]) [%] | activation at 10 µM (Drosophila OR47a; [11]) [%] | activation at 100 µM (Drosophila OR47a; [11]) [%] | activation at 1 µM (Drosophila OR10a; [12]) [%] | activation at 10 µM (Drosophila OR10a; [13]) [%] | activation at 100 µM (Drosophila OR10a; [14]) [%] | further results |
| --- | --- | --- | --- | --- | --- | --- | --- | --- | --- | --- | --- | --- | --- | --- | --- | --- | --- | --- | --- | --- | --- |
| CCCOC(C)=O [propyl acetate] | 0 | 9 | 33 | 0.00 | 0.09 | 0.00 | 0.09 | 0.33 | 0 | 9 | 0 |  |  |  |  |  |  |  |  |  | OR47a response (VUAA1-normalized) at 100 μM (Drosophila OR47a; VOC concentration 100 μM): 0.33; DF norm AVERAGE OR47a (Drosophila OR47a; [2]): 0; DF norm AVERAGE OR47a (Drosophila OR47a; [3]): 0.0896; DF norm AVERAGE OR47a (Drosophila OR47a; [4]): 0.3345; OR10a response (VUAA1-normalized) at 1 μM (Drosophila OR10a; VOC concentration 1 μM): 0.00; OR10a response (VUAA1-normalized) at 10 μM (Drosophila OR10a; VOC concentration 10 μM): 0.09; OR10a response (VUAA1-normalized) at 100 μM (Drosophila OR10a; VOC concentration 100 μM): 0.00; DF norm AVERAGE OR10a (Drosophila OR10a; [2]): 0; DF norm AVERAGE OR10a (Drosophila OR10a; [3]): 0.08914; DF norm AVERAGE OR10a (Drosophila OR10a; [4]): 0 |
| C=C(C)[C@H]1CC=C(C)CC1 [(R)-(+)-limonene] |  |  |  |  |  | 0.05 | 0.0529 | 0.00 |  |  |  | 0 | 0.05286 | 0 |  |  |  |  |  |  | OR47a response (VUAA1-normalized response) (Drosophila OR47a; VOC concentration 1 μM): 0.00; OR47a response (VUAA1-normalized response) (Drosophila OR47a; VOC concentration 10 μM): 0.0529; OR47a response (VUAA1-normalized response) (Drosophila OR47a; VOC concentration 100 μM): 0.00; OR10a Average response (VUAA1-normalized) (Drosophila OR10a; 1 μM VOC, 50 μM VUAA1 = 1, responses not exceeding 0.05 considered 0): 0.00; OR10a Average response (VUAA1-normalized) (Drosophila OR10a; 10 μM VOC, 50 μM VUAA1 = 1, responses not exceeding 0.05 considered 0): 0.12; OR10a Average response (VUAA1-normalized) (Drosophila OR10a; 100 μM VOC, 50 μM VUAA1 = 1, responses not exceeding 0.05 considered 0): 0.0152; OR10a response (VUAA1-normalized response) (Drosophila OR10a; VOC concentration 1 μM): 0.00; OR10a response (VUAA1-normalized response) (Drosophila OR10a; VOC concentration 10 μM): 0.12; OR10a response (VUAA1-normalized response) (Drosophila OR10a; VOC concentration 100 μM): 0.00 |
| CCCCCC(=O)CC [3-octanone] | 7 | 16 | 73 |  |  | 0.0745 | 0.16 | 0.73 | 2 | 10 | 2.65 | 0.07449 | 0.1581 | 0.7333 | 7.45 | 16 | 73 | 0 | 10 | 0 |  |
| Cc1ccc(C)cc1 [p-xylene] |  |  |  | 0.00 | 0.00 | 0.00 | 0.00 | 0.0271 |  |  |  |  |  |  |  |  |  |  |  |  | OR47a response (VUAA1-normalized) at 100 μM (Drosophila OR47a; VOC concentration 100 μM): 0.00; DF norm AVERAGE OR47a (Drosophila OR47a; [2]): 0; DF norm AVERAGE OR47a (Drosophila OR47a; [3]): 0; DF norm AVERAGE OR47a (Drosophila OR47a; [4]): 0; activation at 1 µM (Drosophila OR10a; HEK293, read-out: OR10a Average response (VUAA1-normalized), 1 μM VOC, 50 μM VUAA1 = 1, responses not exceeding 0.05 considered 0): 0%; activation at 10 µM (Drosophila OR10a; HEK293, read-out: OR10a Average response (VUAA1-normalized), 10 μM VOC, 50 μM VUAA1 = 1, responses not exceeding 0.05 considered 0): 0%; activation at 100 µM (Drosophila OR10a; HEK293, read-out: OR10a Average response (VUAA1-normalized), 100 μM VOC, 50 μM VUAA1 = 1, responses not exceeding 0.05 considered 0): 6.41%; OR10a response (VUAA1-normalized) at 1 μM (Drosophila OR10a; VOC concentration 1 μM): 0.00; OR10a response (VUAA1-normalized) at 10 μM (Drosophila OR10a; VOC concentration 10 μM): 0.00; OR10a response (VUAA1-normalized) at 100 μM (Drosophila OR10a; VOC concentration 100 μM): 0.0641; DF norm AVERAGE OR10a (Drosophila OR10a; [2]): 0; DF norm AVERAGE OR10a (Drosophila OR10a; [3]): 0; DF norm AVERAGE OR10a (Drosophila OR10a; [4]): 0.06412 |
| C=CC(O)C/C=C\CC (stereo not shown) [(5Z)-octa-1,5-dien-3-ol] |  |  |  |  |  | 0.00 | 0.00 | 0.00 | 0 | 2.25 | 0 | 0 | 0 | 0 | 0 | 0 | 0 | 0 | 0 | 0 | DF norm AVERAGE OR10a (Drosophila OR10a): 0 |
| Cc1cccc(O)c1 [3-methylphenol] |  |  |  |  |  | 0.00 | 0.00 | 0.00 | 9 | 6 | 13 | 0 | 0 | 0 | 0 | 0 | 0 | 9 | 6 | 13 |  |
